Results reported in patent publication US7993687B2, “Compositions and methods for management of diabetes” (priority 2006, dated 2011).

Experiments:
Type in all cases: cell-based, rat
[1] = system: H4IIE cells; experiment: 3H-deoxyglucose uptake by H4IIE cells; settings: for 3H-deoxy-glucose uptake (basal) by H4IIE cells: insulin 10^-6 M, 2 μL (0.4% v/v) of BWE, D-CI or MI, versus untreated cells
Method: Tissue culture media, antibiotics, fetal bovine serum (FBS) and Nunc tissue culture plates were purchased from Gibco-BRL (division of Invitrogen Canada Inc.). Insulin (Sigma-Aldrich Canada Ltd.) was dissolved in water and added directly to cells at a final concentration of 10^−6 M. The buckwheat extract was prepared and analyzed as in Example 1. Two μL of the buckwheat extract were added directly to cells unless otherwise indicated. Myo-inositol (Sigma Aldrich Canada Ltd.) and D-chiro-inositol (Industrial Research Ltd.) were dissolved in water at an equal concentration to the amounts present in the BWE (Table 3) and 2 μL of each solution was added directly to cells.
(§1) Rat H4IIE hepatoma cells (American Type Culture Collection, CRL 1548) were cultured as described in Example 3. Briefly, cells were maintained in α-modified Eagle's media containing 10% FBS, 2 mM glutamine, 50 μg·mL^−1 streptomycin and 50 μg·mL^−1 penicillin. Cells were plated and grown to 70% confluence. All cells were placed into serum-free medium for 72 h before addition of stimulating agents to ensure entry into a quiescent state.
^3H-deoxyglucose uptake was assayed using the method disclosed by Harrison et al. (1990, J. Biol. Chem. 265(10):5793-5801). Quiescent H4IIE cells, in 24-well culture dishes containing 1 mL serum-free medium, were washed three times with physiological salt solution (PSS) ([…], pH 7.4). Cells were placed into 0.5 mL PSS and pre-incubated with inhibitors for 10 minutes prior to the 20 minute stimulation with treatments (insulin, BWE, D-CI, MI). For all experiments, insulin was added at a concentration of 10^−6 M whereas 2 μL volumes of the BWE, D-CI, or MI (0.4% v/v final concentration) were added to cells unless otherwise indicated in figures. Sugar uptake was initiated by the addition of ^3H-deoxyglucose to a final assay concentration of 0.1 mM glucose (1 mCi/mL) and the cells were subsequently incubated for 5 minutes at 37° C. After two rapid washes with ice-cold PSS (0.5-1 mL/well), the cells were solubilized with 0.4 mL of 0.1% SDS, and ^3H was detected in 3 mL of EcoLume scintillant (MP Biomedicals Inc., Costa Mesa, Calif., USA, 92626).
Statistical significance between treatments was determined by one-way ANOVA and by Duncan's multiple range test for means testing (SAS v.9.1, SAS Institute Inc., Cary, N.C.). […] Data are expressed as the mean±SE.
Since insulin has the same effect, we compared the ability of BWE, insulin and two insulin-mimetic compounds (D-CI and MI) to stimulate glucose uptake by H4IIE hepatoma cells. […] Radio-labelled deoxyglucose was added to the medium and glucose uptake was determined by the detection of ^3H in cells.
Fractions (˜1.0 ml) from each solvent extraction were collected and assayed for their effects on MAPK activation as described in Example 3. The effects of selected fractions, alone or in combination with insulin, on the uptake of labelled glucose were assessed following the methods described in Example 4. […] The effects of the solvent fractions on H4IIE cells were assessed with 20-min exposure periods after which, sugar uptake was initiated by the addition of ^3H-deoxyglucose to a final assay concentration of 0.1 mM glucose (1 mCi/mL) and the cells were subsequently incubated for 5 minutes at 37° C. After two rapid washes with ice-cold PSS (0.5-1 mL/well), the cells were solubilized with 0.4 mL of 0.1% SDS, and ^3H was detected in 3 mL of EcoLume scintillant. […]

[2] = system: PDK-1 (Ser241); experiment: Western blot of PDK-1 phosphorylation in H4IIE cells; settings: for PDK-1 (Ser241) phosphorylation, stimulation (fold) relative to the control: 6 min, one experiment
Method: (§2) Tissue culture media, antibiotics, fetal bovine serum (FBS) and Nunc tissue culture plates were purchased from Invitrogen Canada Inc. (Burlington, Ontario, Canada, L7P 1A1). Insulin (Sigma-Aldrich Canada Ltd., Oakville, Ontario, Canada, L6H 6J8) was dissolved in water and added directly to cells at a concentration of 250 nM unless otherwise indicated. The BWE was prepared and analyzed as described in Example 1. Two μL of the BWE were added directly to cells unless otherwise indicated. This amount was chosen on the basis of equivalence to insulin. Myo-inositol (Sigma-Aldrich Canada Ltd.) and D-chiro-inositol (Industrial Research Ltd., Wellington, New Zealand) were dissolved in water at an equal concentration to the amounts present in the BWE (Table 3) and 2 μL of each solution (0.1% v/v final concentration) was added directly to cells.
as §1, with “cultured following the method disclosed by Yau et al., (1998, Eur. J. Biochem. 253: 91-1). The H4IIE” for “cultured as described in Example 3. Briefly,”, “glutamine, 25” for “glutamine, 50”, “and 25 units·mL^−1” for “and 50 μg·mL^−1”
(§3) Cultures of quiescent H4IIE cells or quiescent FAO cells were placed into 12-well culture dishes containing 2 mL serum-free medium, and then stimulated by direct addition of the inhibitors listed in Table 1 (volumes of additions were 10 μL or less) without replacing the medium. […] The cells in 12-well culture dishes were incubated with stimulating agents for 6 minutes and rinsed with phosphate buffered saline (PBS; 0.9% NaCl, 0.1 M Na3PO4, pH 7.1).
(§4) Cellular protein extracts were prepared by addition of 200 μL 2×SDS/gel loading buffer (0.125 M Tris pH 6.8, 2% SDS, 10% glycerol) to H4IIE cells in 12-well culture dishes. The samples were briefly sonicated, and protein content measured using the BCA protein assay kit. Aliquots containing equal amounts of protein were mixed with bromophenol blue (0.5% (w/v) final concentration) and 2-mercaptoethanol (5% (v/v) final concentration), heated at 95° C. and loaded onto 7.5% or 10% polyacrylamide gels. […] Primary antibodies (diluted 1:1000 in 3% (w/v) BSA) were incubated with the membrane for 60 min at 22° C. Membranes were subsequently washed four times and incubated for an additional 60 min at 1 8-22° C. in 1% (w/v) BSA-TBST with diluted HRP-coupled secondary antibody (1:10 000). HRP was detected using the ECL chemiluminescent system after the membranes had been washed four times.
(§5) Quantification of data obtained on film (Kodak X-omat) was accomplished with a GS800 imaging densitometer (Bio-Rad Laboratories) under nonsaturating conditions with local background subtraction. Although multiple exposures were acquired to ensure the absence of film saturation, the experimental figures typically show longer exposures selected specifically for visual presentation and not necessarily used for data analysis. Graphical data are presented as means±SE for a minimum of three replicate samples.

[3] = system: Raf (Ser259); experiment: Western blot of Raf phosphorylation in H4IIE cells; settings: for Raf (Ser259) phosphorylation, stimulation (fold) relative to the control: 6 min, one experiment
Method: as §2
as §1, with “cultured following the method disclosed by Yau et al., (1998, Eur. J. Biochem. 253: 91-1). The H4IIE” for “cultured as described in Example 3. Briefly,”, “glutamine, 25” for “glutamine, 50”, “and 25 units·mL^−1” for “and 50 μg·mL^−1”
as §3, §4, §5

[4] = BWE-stimulated, 15-min preincubation with the inhibitor (None = BWE alone)
[5] = insulin-stimulated, 15-min preincubation with the inhibitor (None = insulin alone)

Row | Compound | 3H-deoxy-glucose uptake (basal) by H4IIE cells [1] | PDK-1 (Ser241) phosphorylation, stimulation (fold) relative to the control [2, 4] | PDK-1 (Ser241) phosphorylation, stimulation (fold) relative to the control [2, 5] | Raf (Ser259) phosphorylation, stimulation (fold) relative to the control [3, 4] | Raf (Ser259) phosphorylation, stimulation (fold) relative to the control [3, 5] | effect of the inhibitor on insulin-stimulated glucose uptake (FIG. 23) ([1]; H4IIE cells, pre-incubated with inhibitor, then insulin) | phosphorylation (activation) of PDK ([2]; 6 minutes) | phosphorylation (activation) of RAF ([3]; 6 minutes)
1 | OC1C(O)C(O)C(O)C(O)C1O [D-CI, D-chiro-inositol] | stimulated glucose uptake | – | – | – | – | – | – | –
2 | O[C@H]1[C@H](O)[C@@H](O)[C@H](O)[C@@H](O)[C@H]1O [MI, myo-inositol] | not statistically different from untreated cells | – | – | – | – | – | – | –
3 | COc1cccc(-c2cc(=O)c3ccccc3o2)c1N [PD98059] | – | 0.54 fold | 1.89 fold | 0.20 fold | 0.20 fold | decreased insulin-stimulated glucose uptake | – | –
4 | insulin: Insulin (Sigma-Aldrich) dissolved in water, positive comparator | stimulated glucose uptake | – | 1.57 fold | – | 0.53 fold | – | not stimulated | not stimulated
